“Also recorded” adds a separate entry of the source. Where no end group is shown, it is not given here.
Key:
CPAF = CPAF (Chlamydia trachomatis serovar D, UniProt O84866); assay: HPLC assay of CPAF cleavage of Abz-tagged vimentin-derived peptide; assay type: biochemical
[1] = system: Chlamydia-infected HeLa cells; assay: Death of infected HeLa cells by flow cytometry of PI-stained cells; assay type: cell-based; conditions: anti-CPAF peptide at 12 hpi, with/without 40μM Z-VAD-FMK at 3 hpi
recombinant CPAF = conditions: ~40 ng CPAF, 48μg GST-tagged Chlamydia proteins, 37°C, 20 min; Coomassie
uninfected cells = assay: Toxicity in uninfected cells; assay type: cell-based; conditions: data not shown
proteasome = assay: Proteasome function in uninfected cells; assay type: cell-based; conditions: data not shown

CPAF, sequence (O84866 276-601): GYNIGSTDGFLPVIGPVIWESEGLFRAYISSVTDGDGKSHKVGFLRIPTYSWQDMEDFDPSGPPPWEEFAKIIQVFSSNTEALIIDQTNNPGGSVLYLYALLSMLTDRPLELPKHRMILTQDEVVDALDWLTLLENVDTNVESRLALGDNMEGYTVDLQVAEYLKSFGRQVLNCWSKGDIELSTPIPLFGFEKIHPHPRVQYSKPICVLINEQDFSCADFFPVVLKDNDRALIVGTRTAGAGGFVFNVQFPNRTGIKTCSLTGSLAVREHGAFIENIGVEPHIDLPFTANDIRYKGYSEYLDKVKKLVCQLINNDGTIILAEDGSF
CPAF, sequence (O84866 24-234): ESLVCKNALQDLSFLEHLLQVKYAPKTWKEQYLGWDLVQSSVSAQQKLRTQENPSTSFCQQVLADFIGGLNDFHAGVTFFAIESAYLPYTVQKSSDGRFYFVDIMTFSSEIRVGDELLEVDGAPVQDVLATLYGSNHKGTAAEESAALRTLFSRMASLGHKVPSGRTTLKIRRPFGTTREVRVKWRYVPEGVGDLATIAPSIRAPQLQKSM

`CC(=O)N[C@@H](CSC(=O)[C@]1([C@@H](O)C(C)C)NC(=O)[C@H](C)[C@@H]1O)C(=O)O` [Lactacystin, lactacystin, reference compound] gave an IC50 (CPAF) of 10 µM.
With “NFALSHFRLPLSTYKEMPYVSHWAGRRRRRRRRR [scrambled control peptide]” the “death of infected cells (PI staining)” value [1] was “PI staining was not seen” and the “inhibition of cleavage of GST-tagged substrates by recombinant CPAF” value (recombinant CPAF) was “but not a scrambled control peptide; also recorded: but not the scrambled control peptide”.
“SLFYSPMVPHFWAELRNHYATSGLKRRRRRRRRR [anti-CPAF peptide]” was tested, and the IC50 (CPAF) was 0.05 µM, the “toxicity in uninfected cells” value (uninfected cells) was “did not induce any obvious toxicity” and the “alteration of proteasome function in uninfected cells” value (proteasome) was “did not induce any obvious toxicity or alter proteasome function in uninfected cells”.
